The record followed here is ChEMBL document CHEMBL1201862, “PubChem BioAssay data set” (2004).

Assay [1] can be described thus: Luminescence-based dose response cell-based high throughput screening assay for cytotoxic compounds using the IEC-6 intestinal epithelial cell line. [Related pubchem assays: 1858 (Summary AID.), 1825 (Counterscreen.), 1907 (Confirmation screen.)]. In kind it is functional. On the technique in general: A counterscreen serves to expose hits that act by an unwanted route or on another target.

The target in assay [2] is T1, RNA-binding protein pos-1 (Caenorhabditis elegans, UniProt G5EF15).
T1 sequence (G5EF15 whole entry): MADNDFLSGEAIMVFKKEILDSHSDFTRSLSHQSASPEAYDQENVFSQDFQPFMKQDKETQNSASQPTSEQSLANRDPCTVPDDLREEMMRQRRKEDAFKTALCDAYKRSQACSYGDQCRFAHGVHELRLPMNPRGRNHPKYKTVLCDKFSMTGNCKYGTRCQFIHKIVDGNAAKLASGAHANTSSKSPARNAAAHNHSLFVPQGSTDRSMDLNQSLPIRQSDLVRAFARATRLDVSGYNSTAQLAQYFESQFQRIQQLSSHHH
Kind of assay: inhibitors of POS-1/mex-3 RNA binding, dose response, biochemical, fluorescence polarization (AID 1964).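 Also: purified POS-1 fused to maltose binding protein made in E. coli; potency of compounds blocking POS-1 binding to fluorescent RNA.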 For orientation: In fluorescence polarisation assays a small probe gives low polarisation when free and higher when bound to something large.

In assay [3] the target is T2, Zinc finger protein mex-5 (Caenorhabditis elegans, UniProt Q9XUB2).
T2 sequence (Q9XUB2 whole entry): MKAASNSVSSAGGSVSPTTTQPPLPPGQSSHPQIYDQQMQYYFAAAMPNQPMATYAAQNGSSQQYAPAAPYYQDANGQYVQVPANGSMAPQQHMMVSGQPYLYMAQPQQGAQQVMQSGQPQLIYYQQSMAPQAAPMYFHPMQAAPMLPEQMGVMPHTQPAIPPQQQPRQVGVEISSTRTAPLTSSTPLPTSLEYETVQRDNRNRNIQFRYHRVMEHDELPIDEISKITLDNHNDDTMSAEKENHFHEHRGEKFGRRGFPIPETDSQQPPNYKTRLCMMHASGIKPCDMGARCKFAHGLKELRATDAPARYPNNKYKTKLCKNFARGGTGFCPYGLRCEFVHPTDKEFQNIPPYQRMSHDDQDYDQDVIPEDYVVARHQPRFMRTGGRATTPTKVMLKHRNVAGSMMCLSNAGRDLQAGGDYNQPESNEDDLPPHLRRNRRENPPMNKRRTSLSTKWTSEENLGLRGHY
Kind of assay: MEX-5/TCR-2 RNA interaction inhibitors, dose response, biochemical, C. elegans, fluorescence polarization (AID 1960).

The target of assay [4] is T3, Dual specificity protein phosphatase 6 (Rattus norvegicus, UniProt Q64346).
T3 sequence (Q64346 whole entry): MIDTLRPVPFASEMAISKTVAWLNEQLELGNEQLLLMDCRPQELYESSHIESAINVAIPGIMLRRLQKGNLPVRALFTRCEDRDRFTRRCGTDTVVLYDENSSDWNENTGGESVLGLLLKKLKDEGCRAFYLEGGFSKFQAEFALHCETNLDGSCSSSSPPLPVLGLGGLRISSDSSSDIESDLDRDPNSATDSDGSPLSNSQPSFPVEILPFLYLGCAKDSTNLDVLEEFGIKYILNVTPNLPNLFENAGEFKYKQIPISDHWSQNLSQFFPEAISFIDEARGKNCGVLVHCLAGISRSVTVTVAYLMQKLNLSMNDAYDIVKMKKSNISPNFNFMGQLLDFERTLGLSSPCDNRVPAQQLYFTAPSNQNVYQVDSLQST
Kind of assay: MKP-3 phosphatase inhibitors, primary screen, biochemical, rat enzyme, in vitro (AID 425).

For assay [5], the target named is T4, Protein RecA (Mycobacterium tuberculosis, UniProt P9WHJ3).
T4 sequence (P9WHJ3 whole entry): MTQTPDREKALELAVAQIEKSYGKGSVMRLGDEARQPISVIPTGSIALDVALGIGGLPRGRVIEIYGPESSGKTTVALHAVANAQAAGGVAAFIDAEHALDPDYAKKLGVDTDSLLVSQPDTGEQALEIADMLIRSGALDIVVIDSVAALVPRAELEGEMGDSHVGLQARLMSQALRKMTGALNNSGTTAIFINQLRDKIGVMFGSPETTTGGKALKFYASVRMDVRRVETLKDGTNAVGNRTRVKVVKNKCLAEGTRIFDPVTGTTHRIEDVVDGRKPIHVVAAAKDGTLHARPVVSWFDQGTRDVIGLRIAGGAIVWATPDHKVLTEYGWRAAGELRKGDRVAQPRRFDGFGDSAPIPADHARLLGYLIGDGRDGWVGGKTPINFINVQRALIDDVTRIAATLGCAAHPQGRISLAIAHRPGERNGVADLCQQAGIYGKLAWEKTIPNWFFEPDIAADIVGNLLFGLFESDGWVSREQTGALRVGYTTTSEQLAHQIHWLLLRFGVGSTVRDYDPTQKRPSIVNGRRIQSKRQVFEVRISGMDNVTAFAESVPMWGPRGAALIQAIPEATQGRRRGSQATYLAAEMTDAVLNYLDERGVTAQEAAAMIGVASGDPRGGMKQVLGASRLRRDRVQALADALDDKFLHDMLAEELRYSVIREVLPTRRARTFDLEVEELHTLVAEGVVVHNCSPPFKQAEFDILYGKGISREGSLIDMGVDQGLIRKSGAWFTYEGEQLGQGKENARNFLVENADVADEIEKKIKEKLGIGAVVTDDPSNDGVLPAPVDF
Kind of assay: Fluorescence Cell-Free Homogeneous Dose Retest to Identify Inhibitors of RecA-Intein Splicing Activity. [Related pubchem assays (depositor defined):AID2097, AID2223, AID489010, AID492950]. The assay is classed as functional.

Assay [6] in a line: cytotoxicity toward NIH3T3 fibroblasts, dose response, counter-screen, cell-based, ATP luminescence, mouse fibroblasts (AID 2010).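 Also: cells exposed to compound for about 90 hours before reading.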 The assay is classed as functional.
In assay [7] the test system is INS1. Kind of assay: beta cell apoptosis inhibitors, cytokine rescue, dose response, luminescence, retest (AID 449756).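 Also: cell death triggered by IL-1 beta plus TNF-alpha plus IFN-gamma mixture; protective hits raise ATP signal compared with cytokine alone wells.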 The assay is classed as functional, cell-based. The note with it: Rattus norvegicus.
Assay [8] addresses T5, Tyrosyl-DNA phosphodiesterase 2 (Homo sapiens, UniProt O95551).
T5 sequence (O95551 whole entry): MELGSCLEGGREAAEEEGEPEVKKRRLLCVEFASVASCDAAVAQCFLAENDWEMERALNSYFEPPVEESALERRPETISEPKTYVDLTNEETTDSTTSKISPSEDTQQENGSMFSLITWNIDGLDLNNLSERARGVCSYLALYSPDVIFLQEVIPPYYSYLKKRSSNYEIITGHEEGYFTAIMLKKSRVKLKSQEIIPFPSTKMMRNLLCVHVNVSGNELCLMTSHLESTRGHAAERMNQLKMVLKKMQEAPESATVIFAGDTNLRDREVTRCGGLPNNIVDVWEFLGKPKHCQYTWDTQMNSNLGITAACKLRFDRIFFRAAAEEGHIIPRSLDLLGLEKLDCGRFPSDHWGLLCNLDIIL
Kind of assay: human TDP2 enzyme inhibitors, dose response, biochemical, epi absorbance, IC50 (AID 743297).

Assay [9] addresses Small ubiquitin-related modifier 1 (Homo sapiens, UniProt P63165). Kind of assay: inhibitors of SUMO1 partner interactions, dose response, biochemical, FRET (AID 624383). The assay is classed as functional. The note with it: read-out: IC50_Mean.
Assay [10] concerns the target Keap1/Nrf2 (Homo sapiens, UniProt Q14145). Kind of assay: Keap1-Nrf2 protein-protein interaction inhibitors, dose response, biochemical, fluorescence polarization, cherry-picked samples (AID 588683).
Assay [11] concerns the target Serine/threonine-protein phosphatase PP1-alpha catalytic subunit (Homo sapiens, UniProt P62136). The assay is described as follows: PP1 phosphatase inhibitors, dose response, biochemical, fluorescence (AID 2394).

Activity calls are given as the source filed them.

Chain of Serine/threonine-protein phosphatase PP1-alpha catalytic subunit (P62136 whole entry): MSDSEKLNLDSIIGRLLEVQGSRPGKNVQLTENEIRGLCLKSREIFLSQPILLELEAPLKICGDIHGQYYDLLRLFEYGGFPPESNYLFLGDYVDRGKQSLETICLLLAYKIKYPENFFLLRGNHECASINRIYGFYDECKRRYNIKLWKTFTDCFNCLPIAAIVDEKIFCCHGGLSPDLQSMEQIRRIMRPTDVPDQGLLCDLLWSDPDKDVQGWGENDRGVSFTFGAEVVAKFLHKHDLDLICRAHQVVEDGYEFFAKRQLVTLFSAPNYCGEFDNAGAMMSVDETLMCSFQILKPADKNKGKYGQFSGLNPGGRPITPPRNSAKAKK
Chain of Keap1/Nrf2 (Q16236 whole entry): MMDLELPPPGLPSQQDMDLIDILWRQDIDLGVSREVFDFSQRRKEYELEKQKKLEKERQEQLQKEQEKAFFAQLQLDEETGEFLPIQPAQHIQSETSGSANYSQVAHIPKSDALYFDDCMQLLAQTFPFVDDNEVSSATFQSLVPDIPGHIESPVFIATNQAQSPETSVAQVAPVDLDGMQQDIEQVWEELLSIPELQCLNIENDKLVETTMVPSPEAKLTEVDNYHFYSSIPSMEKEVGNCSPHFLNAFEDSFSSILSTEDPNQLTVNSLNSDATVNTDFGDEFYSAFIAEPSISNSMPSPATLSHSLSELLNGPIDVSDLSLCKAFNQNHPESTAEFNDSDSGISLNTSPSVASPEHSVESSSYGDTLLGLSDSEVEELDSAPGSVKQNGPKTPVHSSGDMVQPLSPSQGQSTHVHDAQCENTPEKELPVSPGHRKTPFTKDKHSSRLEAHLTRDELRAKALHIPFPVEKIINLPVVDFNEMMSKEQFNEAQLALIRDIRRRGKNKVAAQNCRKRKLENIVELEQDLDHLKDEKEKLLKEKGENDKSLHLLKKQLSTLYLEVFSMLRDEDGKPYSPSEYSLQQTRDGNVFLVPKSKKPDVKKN
Chain of Keap1/Nrf2 (Q14145 whole entry): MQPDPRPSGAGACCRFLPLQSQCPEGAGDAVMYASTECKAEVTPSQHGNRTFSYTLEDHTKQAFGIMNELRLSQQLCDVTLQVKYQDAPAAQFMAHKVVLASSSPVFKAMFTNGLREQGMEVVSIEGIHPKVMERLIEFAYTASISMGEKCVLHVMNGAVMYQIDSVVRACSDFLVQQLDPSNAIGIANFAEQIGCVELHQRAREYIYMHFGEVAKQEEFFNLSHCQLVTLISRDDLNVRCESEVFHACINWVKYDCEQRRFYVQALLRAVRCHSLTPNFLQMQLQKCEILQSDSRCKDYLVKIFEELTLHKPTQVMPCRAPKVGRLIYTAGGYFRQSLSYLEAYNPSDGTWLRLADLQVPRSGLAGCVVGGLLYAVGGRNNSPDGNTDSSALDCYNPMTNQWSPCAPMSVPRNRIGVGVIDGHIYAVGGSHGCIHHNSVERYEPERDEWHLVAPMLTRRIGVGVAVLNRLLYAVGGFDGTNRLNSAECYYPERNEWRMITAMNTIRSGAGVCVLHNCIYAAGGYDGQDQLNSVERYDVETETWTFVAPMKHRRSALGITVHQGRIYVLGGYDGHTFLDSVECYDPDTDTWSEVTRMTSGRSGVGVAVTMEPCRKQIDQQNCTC
Chain of Small ubiquitin-related modifier 1 (P63165 whole entry): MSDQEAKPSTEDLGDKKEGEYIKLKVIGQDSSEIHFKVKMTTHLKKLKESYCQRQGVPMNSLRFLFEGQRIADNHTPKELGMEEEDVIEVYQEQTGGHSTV

For the molecule `O=C1c2ccccc2C(=O)c2[nH]c(O)nc21`, the IC50 in [1] was 1.81 µM (active). For the same molecule, the EC50 was 28.9 µM (active) in assay [2] and 17.9 µM (active) in assay [3].

For `N#Cc1c(N2CCCC2)nc(N)c2c(N)nc(N3CCCC3)cc12`, the IC50 in assay [4] is 1.05 µM (active). Also, in assay [5], the concentration giving a half-maximal response (EC50) is 0.109 µM (active).

With `COC(=O)c1cc(C)nc2c1C(=O)C(=O)C=C2N1CCOCC1`, the EC50 is > 16 µM (not active) in [6] and 0.199 µM (active) in assay [5]. The half-maximal activity concentration (AC50) in assay [7] was 2.71 µM (active). For the same molecule, the IC50 in [8] was 1.33 µM (active).

As to `NS(=O)(=O)c1cc(C(=O)NC2CCSc3ccccc32)ccc1Cl` (stereo unspecified), the IC50 is 2.29 µM (active) in assay [9] and > 158 µM (not active) in [4]. Besides, in [10], the AC50 was > 52 µM (inactive). Moreover, the half-maximal effective concentration (EC50) in [2] is 13.4 µM (inconclusive); in assay [3] it was 18.9 µM (inconclusive).

In the case of `CCOC(=O)C1=C(C)OC2(O)c3ccccc3C(=O)C12O` (stereo unspecified), the results for the IC50 in assay [8] and in [11] were 4.11 µM (active) and 49 µM (not active), respectively.

As a reminder, the EC50 is the midpoint of the concentration-response curve. One may read the AC50 as the midpoint of the concentration-response curve, whichever way the signal moves.
